# Measured values as given in patent US20030158254A1, “Engineering absorption of therapeutic compounds via colonic transporters” (XenoPort, Inc., priority 2002, published 2003).
# Target: T1, rat PEPT1 (Rattus norvegicus, UniProt P51574)
# T1 construct: Rat and human PEPT1 and PEPT2 transporter cDNAs were subcloned into a modified pGEM plasmid; expressed in transfected cells; host or cells: Xenopus laevis oocytes injected with in vitro transcribed RNA
# T1 sequence (P51574 1-710): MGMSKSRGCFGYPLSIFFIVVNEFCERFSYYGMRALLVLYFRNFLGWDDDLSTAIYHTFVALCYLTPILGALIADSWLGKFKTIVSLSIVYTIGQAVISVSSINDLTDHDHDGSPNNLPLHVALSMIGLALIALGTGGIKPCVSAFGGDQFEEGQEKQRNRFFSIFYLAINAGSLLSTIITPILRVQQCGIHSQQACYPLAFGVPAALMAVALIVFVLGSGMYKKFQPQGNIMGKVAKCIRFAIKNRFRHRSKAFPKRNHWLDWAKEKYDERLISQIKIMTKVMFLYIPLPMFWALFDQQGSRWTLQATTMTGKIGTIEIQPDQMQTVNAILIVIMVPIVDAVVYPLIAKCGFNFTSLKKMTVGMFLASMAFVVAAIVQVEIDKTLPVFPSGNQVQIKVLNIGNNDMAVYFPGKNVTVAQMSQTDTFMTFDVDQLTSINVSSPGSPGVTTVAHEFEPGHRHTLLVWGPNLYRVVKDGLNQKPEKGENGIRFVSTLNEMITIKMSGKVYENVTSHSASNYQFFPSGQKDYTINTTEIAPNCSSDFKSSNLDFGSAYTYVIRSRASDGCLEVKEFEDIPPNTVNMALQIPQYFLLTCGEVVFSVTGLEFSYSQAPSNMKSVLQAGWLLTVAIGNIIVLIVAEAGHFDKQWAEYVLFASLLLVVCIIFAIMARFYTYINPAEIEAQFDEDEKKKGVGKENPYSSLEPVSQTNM
# Test: Electrogenic transport (induced current) in Xenopus oocytes transfected with rat PEPT1
# Format: cell-based
# Protocol: Rat and human PEPT1 and PEPT2 expressing CHO cell lines were prepared as described in PCT Application WO01/20331. Gabapentin-containing dipeptides were evaluated for interaction with the peptide transporters using a radiolabeled substrate uptake assay in a competitive inhibition format, as described in PCT Application WO01/20331. Transport-induced currents were also measured in Xenopus oocytes transfected with rat and human PEPT1 and PEPT2.
# RNA preparation: Rat and human PEPT1 and PEPT2 transporter cDNAs were subcloned into a modified pGEM plasmid that contains 5′ and 3′ untranslated sequences from the Xenopus β-actin gene. These sequences increase RNA stability and protein expression. Plasmid cDNA was linearized and used as template for in vitro transcription (Epicentre Technologies transcription kit, 4:1 methylated:non-methylated guanosine triphosphate(GTP)).
# Xenopus oocyte isolation. Xenopus laevis frogs were anesthetized by immersion in Tricaine ([…] in deionized water) for 15 min. […]
# Electrophysiology measurements. Transport currents were measured 2-14 days after injection, using a standard two-electrode electrophysiology set-up (Geneclamp 500 amplifier, Digidata 1320/PCLAMP software and ADInstruments hardware and software were used for signal acquisition). […]
smiles,measurement,setting,value
"CC(C)(N)C(=O)NCC1(CC(=O)O)CCCCC1 [Compound V, a-aminoisobutyryl gabapentin]",Vmax relative to reference substrate Gly-Sar,"1 mM, oocytes transfected with rat PEPT1",50%
same,Vmax relative to Gly-Sar in the presence of PEPT inhibitor Lys(ε-Dansyl)-Leu,"rat PEPT transfected oocytes, with Lys(ε-Dansyl)-Leu",< 5%
